Assay results from publication PMC5201331, “Subchronic Toxicities of HZ1006, a Hydroxamate-Based Histone Deacetylase Inhibitor, in Beagle Dogs and Sprague-Dawley Rats” (International Journal of Environmental Research and Public …, 2016).

Columns and labels:
[1] = Toxicokinetics in Beagle dogs; format: in vivo; details: for accumulation coefficient R: after 28 days compared with d1; for Tmax / Cmax / half-life / AUC(0-inf): both sexes, Beagle, dog
Description: (§1) HZ1006 was administered orally to dogs (four/sex/group) at doses of 80, 40, 20, 5 and 0 (control) mg/kg/day, and the dosage volume was 2 mL/kg. The dogs received test doses with the exact amounts on a weekly basis based on current body weights. […] The other dogs in the above groups were dissected on the planned days. For the other groups, half of the dogs were anatomized on d28 and the remaining half on d42.
The dogs’ blood samples were obtained on the 1st day, the 14th day and the last day (d28) of dosage for plasma HZ1006 content analyses at 0 (1st day only), 1/6, 0.5, 1, 2, 4, 8, 12 and 24 h after dosing, and the blood samples of the rats were acquired on the 1st day and 28th day at the same time as those of the dogs, which were handled and analyzed according to the procedure reported by Zhang et al..

Beagle dogs = assay: Subchronic toxicity test in Beagle dogs: clinical observation; format: in vivo; details: for Frequencies of Diarrhea / Frequencies of Vomiting: beagle, dog, in vivo, po, 42 days
Description: as §1
Clinical symptoms and mortality were examined at least twice daily during the 42-day period, which included any changes in reaction to treatment, behavior, illness, food consumption, and body weight. Breathing rates, rectal temperature and pupil changes in the Beagle dogs were assessed once every 2 weeks.

[2] = Subchronic toxicity test in SD rats: overall (NOAEL, urinalysis, bone marrow, histopathology); format: in vivo, Sprague-Dawley (SD) rats; details: both sexes, Sprague-Dawley, rat, in vivo, daily oral administration, read-out: NOAEL (No Observed Adverse Effect Level)
Description: (§2) The rats that were judged suitable for the subchronic toxicity study were randomly divided into four groups (10 rats/sex/group). The rats received the test sample by gavage once daily for 28 days. HZ1006 was administered to the rats at doses of 120, 60, 20 and 0 (control) mg/kg, and the dosage volume was 5 mL/kg. Half of the 80 rats (half male and half female) were selected randomly according to body weight and dissected at d28. The remaining rats were dissected at d42.
(§3) A Micro AUTION MA-4260 Autoanalyzer from Arkray Global Business, Inc. (kyoto, Japan), was used to analyze the animal urine samples. Parameters such as pH, specific gravity, nitrites, leukocytes, glucose, protein, urobilinogen, ketones, occult blood, bilirubin, and hemoglobin were tested.
(§4) Bone marrow samples were obtained according to the methods reported previously. We classified the bone marrow cells by immersion objective. […]

SD rats = assay: as above; format: in vivo, Sprague-Dawley (SD) rats; details: daily oral administration, 28 days
Description: as §2, §3, §4

[3] = plasma, po, 5 mg/kg/day, 5 mg/kg/day oral, 14 days
[4] = plasma, po, 5 mg/kg/day, 5 mg/kg/day oral, 28 days
[5] = plasma, po, 5 mg/kg/day, 5 mg/kg/day oral, single
[6] = plasma, po, 20 mg/kg/day, 20 mg/kg/day oral, 14 days
[7] = plasma, po, 20 mg/kg/day, 20 mg/kg/day oral, 28 days
[8] = plasma, po, 20 mg/kg/day, 20 mg/kg/day oral, single
[9] = plasma, po, 40 mg/kg/day, 40 mg/kg/day oral, 14 days
[10] = plasma, po, 40 mg/kg/day, 40 mg/kg/day oral, 28 days
[11] = plasma, po, 40 mg/kg/day, 40 mg/kg/day oral, single
[12] = plasma, po, 80 mg/kg/day, 80 mg/kg/day oral, 14 days
[13] = plasma, po, 80 mg/kg/day, 80 mg/kg/day oral, 28 days
[14] = plasma, po, 80 mg/kg/day, 80 mg/kg/day oral, single

With CCCCCCCNc1cc(/C=C/C(=O)NO)ccc1OCCN(CC)CC [HZ1006] the “accumulation coefficient R” value ([1]; 5 mg/kg/day oral) was 1.3 ± 1.2, the “accumulation coefficient R” value ([1]; 80 mg/kg/day oral) was 1.2 ± 0.9 and the Tmax ([1]; in vivo, 20 mg/kg/day oral, 28 days) was 3.17 ± 1.33 h. The Cmax ([1]; in vivo, 40 mg/kg/day oral, single) was 456 ± 376 ng/mL, the half-life ([1]; in vivo, 80 mg/kg/day oral, 28 days) was 7.56 ± 3.27 h and the AUC(0-inf) [1, 3] was 199 ± 69.6 ng·h/mL. For the same molecule, the Cmax [1, 3] was 30.1 ± 14.2 ng/mL, the Tmax [1, 3] was 4.2 ± 2.01 h and the half-life [1, 3] was 4.75 ± 1.23 h. For the same molecule, the AUC(0-inf) [1, 4] was 616 ± 242 ng·h/mL, the Cmax [1, 4] was 65.7 ± 42 ng/mL and the Tmax [1, 4] was 4.33 ± 2.94 h. It also gave a half-life [1, 4] of 7.34 ± 1.02 h, an AUC(0-inf) [1, 5] of 193 ± 64.6 ng·h/mL and a Cmax [1, 5] of 35.6 ± 15.1 ng/mL. It also gave a Tmax [1, 5] of 3.67 ± 1.52 h, a half-life [1, 5] of 4.4 ± 0.61 h and an AUC(0-inf) [1, 6] of 620 ± 249 ng·h/mL. It also gave a Cmax [1, 6] of 68.1 ± 22.8 ng/mL, a Tmax [1, 6] of 4 ± 2.19 h and a half-life [1, 6] of 5.21 ± 0.53 h. The AUC(0-inf) [1, 7] was 389 ± 104 ng·h/mL, the Cmax [1, 7] was 55.2 ± 21.8 ng/mL and the half-life [1, 7] was 5.35 ± 0.73 h. The AUC(0-inf) [1, 8] was 1190 ± 320 ng·h/mL, the Cmax [1, 8] was 139 ± 73.4 ng/mL and the Tmax [1, 8] was 3.5 ± 2.51 h. For the same molecule, the half-life [1, 8] was 5.54 ± 1.53 h, the AUC(0-inf) [1, 9] was 1020 ± 977 ng·h/mL and the Cmax [1, 9] was 199 ± 175 ng/mL. It also gave a Tmax [1, 9] of 1.9 ± 1.34 h, a half-life [1, 9] of 7.34 ± 3.82 h and an AUC(0-inf) [1, 10] of 928 ± 298 ng·h/mL. For the same molecule, the Cmax [1, 10] was 162 ± 102 ng/mL, the Tmax [1, 10] was 2.2 ± 1.1 h and the half-life [1, 10] was 5.08 ± 1.04 h. It also gave an AUC(0-inf) [1, 11] of 2500 ± 1490 ng·h/mL, a Tmax [1, 11] of 2.7 ± 2.7 h and a half-life [1, 11] of 6.93 ± 3.03 h. For the same molecule, the AUC(0-inf) [1, 12] was 1550 ± 758 ng·h/mL, the Cmax [1, 12] was 174 ± 123 ng/mL and the Tmax [1, 12] was 4.43 ± 3.53 h. It also gave a half-life [1, 12] of 7.23 ± 3.45 h, an AUC(0-inf) [1, 13] of 1820 ± 570 ng·h/mL and a Cmax [1, 13] of 180 ± 83.4 ng/mL. It also gave a Tmax [1, 13] of 4.6 ± 3.29 h, an AUC(0-inf) [1, 14] of 3870 ± 2630 ng·h/mL and a Cmax [1, 14] of 365 ± 257 ng/mL. For the same molecule, the Tmax [1, 14] was 3.5 ± 2.51 h, the half-life [1, 14] was 6.74 ± 2.2 h and the mortality (Beagle dogs; dogs, 5-80 mg/kg/day oral, ♀6 d8 and ♀8 d10 (80 mg/kg), ♀28 d16 (40 mg/kg)) was “Three dogs died during the study”. For the same molecule, the “Frequencies of Diarrhea” value (Beagle dogs; female, 5 mg/kg/day) was 0 days, the “Frequencies of Vomiting” value (Beagle dogs; female, 5 mg/kg/day) was 0 days and the “Frequencies of Diarrhea” value (Beagle dogs; female, 20 mg/kg/day) was 0 days. For the same molecule, the “Frequencies of Diarrhea” value (Beagle dogs; male, 5 mg/kg/day) was 0 days, the “Frequencies of Vomiting” value (Beagle dogs; male, 5 mg/kg/day) was 0 days and the “Frequencies of Diarrhea” value (Beagle dogs; male, 20 mg/kg/day) was 0 days. It also gave an NOAEL at 28 days [2] of 60 mg/kg and a minimum toxic dose (SD rats) of 120 mg/kg.
